According to ChEMBL document CHEMBL5463729, “Data for DCP probe BAY 1753011” (2023):

Assays:
Details in all cases: Compound concentration 10.0 uM
[1] = target: Serine/threonine-protein kinase PAK 6 (Homo sapiens) (UniProt Q9NQU5); assay: Inhibition of PAK6(h) at 10.0 µM in the Eurofins Kinase panel
[2] = target: Serine/threonine-protein kinase pim-3 (Homo sapiens) (UniProt Q86V86); assay: Inhibition of Pim-3(h) at 10.0 µM in the Eurofins Kinase panel
[3] = target: Serine/threonine-protein kinase 17B (Homo sapiens) (UniProt O94768); assay: Inhibition of DRAK2(h) at 10.0 µM in the Eurofins Kinase panel
[4] = target: Cyclin-G-associated kinase (Homo sapiens) (UniProt O14976); assay: Inhibition of GAK(h) at 10.0 µM in the Eurofins Kinase panel
[5] = target: Sodium-dependent noradrenaline transporter (Homo sapiens, UniProt P23975)
[6] = target: NUAK family SNF1-like kinase 2 (Homo sapiens) (UniProt Q9H093); assay: Inhibition of NUAK2(h) at 10.0 µM in the Eurofins Kinase panel
[7] = target: Serine/threonine-protein kinase PLK2 (Homo sapiens) (UniProt Q9NYY3); assay: Inhibition of Snk(h) at 10.0 µM in the Eurofins Kinase panel
[8] = target: Serine/threonine-protein kinase Nek6 (Homo sapiens) (UniProt Q9HC98); assay: Inhibition of NEK6(h) at 10.0 µM in the Eurofins Kinase panel
[9] = target: Beta-3 adrenergic receptor (Homo sapiens) (UniProt P13945)
[10] = target: Type-2 angiotensin II receptor (Homo sapiens) (UniProt P50052)
[11] = target: Receptor-type tyrosine-protein kinase FLT3 (Homo sapiens) (UniProt P36888); assay: Inhibition of Flt3(h) at 10.0 µM in the Eurofins Kinase panel
[12] = target: Myosin light chain kinase (Homo sapiens) (UniProt Q32MK0); assay: Inhibition of MLCK(h) at 10.0 µM in the Eurofins Kinase panel
[13] = target: 5-hydroxytryptamine receptor 5A (Homo sapiens) (UniProt P47898)
[14] = target: Casein kinase I isoform delta (Homo sapiens) (UniProt P48730); assay: Inhibition of CK1delta(h) at 10.0 µM in the Eurofins Kinase panel
[15] = target: Tyrosine-protein kinase receptor UFO (Homo sapiens) (UniProt P30530); assay: Inhibition of Axl(h) at 10.0 µM in the Eurofins Kinase panel
[16] = target: T1, Muscarinic acetylcholine receptor M2 (Homo sapiens) (UniProt P08172)
T1 sequence (whole entry): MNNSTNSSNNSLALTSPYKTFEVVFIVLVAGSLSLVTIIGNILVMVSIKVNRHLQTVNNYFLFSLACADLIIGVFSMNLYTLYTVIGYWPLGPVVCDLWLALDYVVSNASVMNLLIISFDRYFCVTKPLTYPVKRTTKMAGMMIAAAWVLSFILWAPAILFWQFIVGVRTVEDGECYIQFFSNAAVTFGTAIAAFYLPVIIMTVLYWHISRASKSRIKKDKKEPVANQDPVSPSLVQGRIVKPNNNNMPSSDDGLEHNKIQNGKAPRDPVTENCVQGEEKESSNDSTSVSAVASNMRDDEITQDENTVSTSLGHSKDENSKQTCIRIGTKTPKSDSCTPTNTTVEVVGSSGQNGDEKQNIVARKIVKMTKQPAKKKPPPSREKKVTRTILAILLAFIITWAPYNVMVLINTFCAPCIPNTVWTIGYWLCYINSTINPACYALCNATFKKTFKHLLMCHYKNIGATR

[17] = target: Proto-oncogene tyrosine-protein kinase ROS (Homo sapiens) (UniProt P08922); assay: Inhibition of Ros(h) at 10.0 µM in the Eurofins Kinase panel
[18] = target: Casein kinase I isoform gamma-3 (Homo sapiens) (UniProt Q9Y6M4); assay: Inhibition of CK1gamma3(h) at 10.0 µM in the Eurofins Kinase panel
[19] = target: Serine/threonine-protein kinase BRSK1 (Homo sapiens) (UniProt Q8TDC3); assay: Inhibition of BrSK1(h) at 10.0 µM in the Eurofins Kinase panel
[20] = target: MAP kinase-activated protein kinase 3 (Homo sapiens) (UniProt Q16644); assay: Inhibition of MAPKAP-K3(h) at 10.0 µM in the Eurofins Kinase panel
[21] = target: Protein kinase C gamma type (Homo sapiens) (UniProt P05129); assay: Inhibition of PKCgamma(h) at 10.0 µM in the Eurofins Kinase panel
[22] = target: Serine/threonine-protein kinase DCLK2 (Homo sapiens) (UniProt Q8N568); assay: Inhibition of DCAMKL2(h) at 10.0 µM in the Eurofins Kinase panel
[23] = target: Cyclin-dependent kinase-like 3 (Homo sapiens) (UniProt Q8IVW4); assay: Inhibition of CDKL3(h) at 10.0 µM in the Eurofins Kinase panel
[24] = target: PI3K p110 beta/p85 alpha (Homo sapiens) (UniProt P27986+P42338); assay: Inhibition of PI3 Kinase (p110b/p85a)(h) at 10.0 µM in the Eurofins Kinase panel; assay type: protein-complex assay
[25] = target: Serine/threonine-protein kinase PAK 1 (Homo sapiens) (UniProt Q13153); assay: Inhibition of PAK1(h) at 10.0 µM in the Eurofins Kinase panel
[26] = target: Serine/threonine-protein kinase PAK 3 (Homo sapiens) (UniProt O75914); assay: Inhibition of PAK3(h) at 10.0 µM in the Eurofins Kinase panel
[27] = target: Protein-tyrosine kinase 6 (Homo sapiens) (UniProt Q13882); assay: Inhibition of BRK(h) at 10.0 µM in the Eurofins Kinase panel
[28] = target: Insulin-like growth factor 1 receptor (Homo sapiens) (UniProt P08069); assay: Inhibition of IGF-1R(h), activated at 10.0 µM in the Eurofins Kinase panel
[29] = target: Dual specificity protein kinase CLK3 (Homo sapiens) (UniProt P49761); assay: Inhibition of CLK3(h) at 10.0 µM in the Eurofins Kinase panel
[30] = target: Serine/threonine-protein kinase Sgk3 (Homo sapiens) (UniProt Q96BR1); assay: Inhibition of SGK3(h) at 10.0 µM in the Eurofins Kinase panel
[31] = target: MAP kinase-activated protein kinase 2 (Homo sapiens) (UniProt P49137); assay: Inhibition of MAPK2(h) at 10.0 µM in the Eurofins Kinase panel
[32] = target: Receptor-interacting serine/threonine-protein kinase 2 (Homo sapiens) (UniProt O43353); assay: Inhibition of RIPK2(h) at 10.0 µM in the Eurofins Kinase panel
[33] = target: Calcium/calmodulin-dependent protein kinase type II subunit gamma (Homo sapiens) (UniProt Q13555); assay: Inhibition of CaMKIIgamma(h) at 10.0 µM in the Eurofins Kinase panel

Sequence of Sodium-dependent noradrenaline transporter (P23975 whole entry): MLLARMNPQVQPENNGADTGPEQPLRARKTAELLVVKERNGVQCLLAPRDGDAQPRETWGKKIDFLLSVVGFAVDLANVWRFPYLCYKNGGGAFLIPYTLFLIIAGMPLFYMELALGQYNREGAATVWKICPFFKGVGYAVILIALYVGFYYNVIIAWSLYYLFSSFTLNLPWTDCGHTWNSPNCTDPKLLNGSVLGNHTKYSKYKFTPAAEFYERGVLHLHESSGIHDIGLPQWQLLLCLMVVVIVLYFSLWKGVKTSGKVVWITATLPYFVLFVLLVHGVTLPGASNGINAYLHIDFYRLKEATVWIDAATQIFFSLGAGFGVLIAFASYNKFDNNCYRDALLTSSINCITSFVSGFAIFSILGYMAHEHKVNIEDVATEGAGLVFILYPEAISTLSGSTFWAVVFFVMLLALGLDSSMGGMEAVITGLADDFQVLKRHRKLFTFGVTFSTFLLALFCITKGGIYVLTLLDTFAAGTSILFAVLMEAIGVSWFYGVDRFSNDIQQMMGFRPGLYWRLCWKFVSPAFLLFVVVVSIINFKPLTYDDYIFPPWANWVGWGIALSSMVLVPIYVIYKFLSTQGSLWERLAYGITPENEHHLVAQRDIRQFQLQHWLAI
Sequence of 5-hydroxytryptamine receptor 5A (Homo sapiens) (P47898 whole entry, canonical isoform): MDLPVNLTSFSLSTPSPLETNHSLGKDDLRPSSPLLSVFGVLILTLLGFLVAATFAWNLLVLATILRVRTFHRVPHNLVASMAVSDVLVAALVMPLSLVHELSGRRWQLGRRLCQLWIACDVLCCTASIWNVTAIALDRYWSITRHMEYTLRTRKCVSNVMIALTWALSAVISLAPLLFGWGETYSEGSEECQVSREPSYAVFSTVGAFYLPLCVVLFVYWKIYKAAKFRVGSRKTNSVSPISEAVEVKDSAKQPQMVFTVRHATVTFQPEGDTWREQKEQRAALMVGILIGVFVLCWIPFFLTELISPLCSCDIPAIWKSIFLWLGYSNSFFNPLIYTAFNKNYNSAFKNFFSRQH
Sequence of Casein kinase I isoform gamma-3 (Homo sapiens) (Q9Y6M4 whole entry, looked up, canonical isoform): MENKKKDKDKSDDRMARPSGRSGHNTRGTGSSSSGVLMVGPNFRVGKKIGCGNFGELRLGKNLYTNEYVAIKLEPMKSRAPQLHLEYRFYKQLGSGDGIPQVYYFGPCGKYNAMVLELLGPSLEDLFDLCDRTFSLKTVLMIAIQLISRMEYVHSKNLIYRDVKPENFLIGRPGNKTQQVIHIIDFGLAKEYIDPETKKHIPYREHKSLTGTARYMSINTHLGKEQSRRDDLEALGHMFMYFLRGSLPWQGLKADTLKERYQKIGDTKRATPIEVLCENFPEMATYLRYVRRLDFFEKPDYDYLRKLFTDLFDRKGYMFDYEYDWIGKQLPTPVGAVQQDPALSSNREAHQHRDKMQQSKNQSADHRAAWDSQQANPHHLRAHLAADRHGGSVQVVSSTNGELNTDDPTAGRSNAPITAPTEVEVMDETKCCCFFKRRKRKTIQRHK
Sequence of Serine/threonine-protein kinase BRSK1 (Homo sapiens) (Q8TDC3 whole entry): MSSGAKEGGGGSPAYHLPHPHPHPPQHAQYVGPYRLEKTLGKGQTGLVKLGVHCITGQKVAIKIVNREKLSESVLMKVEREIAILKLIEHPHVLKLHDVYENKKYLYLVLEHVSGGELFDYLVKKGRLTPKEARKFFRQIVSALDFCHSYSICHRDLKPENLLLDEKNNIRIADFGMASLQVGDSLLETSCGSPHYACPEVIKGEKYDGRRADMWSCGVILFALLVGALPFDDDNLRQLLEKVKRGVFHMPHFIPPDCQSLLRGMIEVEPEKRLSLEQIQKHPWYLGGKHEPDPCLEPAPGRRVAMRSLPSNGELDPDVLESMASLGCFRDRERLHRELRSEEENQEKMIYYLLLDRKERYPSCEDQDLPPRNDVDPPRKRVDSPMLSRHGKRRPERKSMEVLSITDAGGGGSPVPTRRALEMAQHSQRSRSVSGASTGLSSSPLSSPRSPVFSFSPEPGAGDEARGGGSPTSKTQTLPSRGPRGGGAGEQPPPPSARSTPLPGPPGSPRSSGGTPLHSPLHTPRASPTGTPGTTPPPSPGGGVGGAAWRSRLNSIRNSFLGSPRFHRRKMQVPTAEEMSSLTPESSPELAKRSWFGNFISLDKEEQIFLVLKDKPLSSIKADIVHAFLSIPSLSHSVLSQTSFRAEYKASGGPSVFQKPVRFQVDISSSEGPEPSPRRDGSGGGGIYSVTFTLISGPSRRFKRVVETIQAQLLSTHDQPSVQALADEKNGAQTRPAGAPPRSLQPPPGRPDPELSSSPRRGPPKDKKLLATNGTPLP
Sequence of Receptor-type tyrosine-protein kinase FLT3 (Homo sapiens) (P36888 whole entry): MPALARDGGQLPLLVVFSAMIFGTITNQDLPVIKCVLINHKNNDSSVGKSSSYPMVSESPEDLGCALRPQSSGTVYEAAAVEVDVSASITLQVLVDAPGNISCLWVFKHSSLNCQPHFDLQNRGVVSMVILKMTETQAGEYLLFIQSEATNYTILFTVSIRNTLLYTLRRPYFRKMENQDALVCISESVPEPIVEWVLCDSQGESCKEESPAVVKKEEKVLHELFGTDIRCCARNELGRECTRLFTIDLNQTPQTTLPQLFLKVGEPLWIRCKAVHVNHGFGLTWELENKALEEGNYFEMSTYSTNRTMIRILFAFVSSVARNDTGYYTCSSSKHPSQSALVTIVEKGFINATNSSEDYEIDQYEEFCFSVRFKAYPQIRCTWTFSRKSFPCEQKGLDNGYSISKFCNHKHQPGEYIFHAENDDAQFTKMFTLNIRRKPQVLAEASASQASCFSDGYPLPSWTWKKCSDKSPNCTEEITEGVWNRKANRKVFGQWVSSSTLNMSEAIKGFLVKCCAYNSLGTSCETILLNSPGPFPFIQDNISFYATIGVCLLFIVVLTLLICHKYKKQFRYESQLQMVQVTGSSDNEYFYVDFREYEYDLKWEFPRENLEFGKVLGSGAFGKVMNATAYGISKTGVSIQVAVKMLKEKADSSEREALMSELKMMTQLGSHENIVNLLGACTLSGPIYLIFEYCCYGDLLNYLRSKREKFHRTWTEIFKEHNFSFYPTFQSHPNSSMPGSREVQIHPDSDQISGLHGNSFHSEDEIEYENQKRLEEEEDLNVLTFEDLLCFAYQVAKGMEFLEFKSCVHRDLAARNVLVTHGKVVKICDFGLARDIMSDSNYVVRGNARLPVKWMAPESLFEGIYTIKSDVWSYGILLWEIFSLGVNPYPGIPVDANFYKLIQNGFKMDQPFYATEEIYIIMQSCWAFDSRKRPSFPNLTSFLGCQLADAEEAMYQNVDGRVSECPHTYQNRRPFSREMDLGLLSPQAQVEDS
Sequence of Serine/threonine-protein kinase DCLK2 (Homo sapiens) (Q8N568 whole entry): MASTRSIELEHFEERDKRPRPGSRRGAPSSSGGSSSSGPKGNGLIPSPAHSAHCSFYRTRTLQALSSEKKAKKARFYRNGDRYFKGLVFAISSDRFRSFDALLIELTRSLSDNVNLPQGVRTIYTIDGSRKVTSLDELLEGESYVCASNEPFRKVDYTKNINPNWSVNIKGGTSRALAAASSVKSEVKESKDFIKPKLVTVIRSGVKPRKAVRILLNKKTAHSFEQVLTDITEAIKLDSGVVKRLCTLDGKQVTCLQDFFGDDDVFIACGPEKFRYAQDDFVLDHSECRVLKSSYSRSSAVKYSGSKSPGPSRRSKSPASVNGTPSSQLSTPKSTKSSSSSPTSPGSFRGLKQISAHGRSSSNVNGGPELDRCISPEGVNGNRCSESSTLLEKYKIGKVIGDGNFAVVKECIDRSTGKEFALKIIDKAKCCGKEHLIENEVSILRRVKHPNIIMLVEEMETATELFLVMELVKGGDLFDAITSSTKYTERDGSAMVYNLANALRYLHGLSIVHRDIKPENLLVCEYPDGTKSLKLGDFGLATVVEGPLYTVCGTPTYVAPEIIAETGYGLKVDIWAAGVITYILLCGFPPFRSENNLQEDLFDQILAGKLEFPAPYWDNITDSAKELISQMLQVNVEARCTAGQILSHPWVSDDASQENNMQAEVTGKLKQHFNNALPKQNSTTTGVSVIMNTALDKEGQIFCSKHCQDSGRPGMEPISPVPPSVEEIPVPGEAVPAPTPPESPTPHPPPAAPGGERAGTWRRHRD
Sequence of Protein-tyrosine kinase 6 (Homo sapiens) (Q13882 whole entry, looked up): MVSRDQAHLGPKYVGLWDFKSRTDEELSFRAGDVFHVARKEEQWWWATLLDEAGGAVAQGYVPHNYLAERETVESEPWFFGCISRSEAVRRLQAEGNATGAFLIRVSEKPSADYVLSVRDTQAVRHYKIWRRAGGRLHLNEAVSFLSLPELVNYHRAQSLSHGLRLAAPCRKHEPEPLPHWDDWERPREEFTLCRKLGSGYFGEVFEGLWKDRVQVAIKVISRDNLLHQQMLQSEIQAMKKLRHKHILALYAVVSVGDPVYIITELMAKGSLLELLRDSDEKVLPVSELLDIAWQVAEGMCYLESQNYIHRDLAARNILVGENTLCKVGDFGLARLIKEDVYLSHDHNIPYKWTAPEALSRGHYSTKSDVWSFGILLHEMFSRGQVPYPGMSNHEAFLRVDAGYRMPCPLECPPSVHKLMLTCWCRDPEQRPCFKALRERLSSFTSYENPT
Sequence of Type-2 angiotensin II receptor (Homo sapiens) (P50052 whole entry): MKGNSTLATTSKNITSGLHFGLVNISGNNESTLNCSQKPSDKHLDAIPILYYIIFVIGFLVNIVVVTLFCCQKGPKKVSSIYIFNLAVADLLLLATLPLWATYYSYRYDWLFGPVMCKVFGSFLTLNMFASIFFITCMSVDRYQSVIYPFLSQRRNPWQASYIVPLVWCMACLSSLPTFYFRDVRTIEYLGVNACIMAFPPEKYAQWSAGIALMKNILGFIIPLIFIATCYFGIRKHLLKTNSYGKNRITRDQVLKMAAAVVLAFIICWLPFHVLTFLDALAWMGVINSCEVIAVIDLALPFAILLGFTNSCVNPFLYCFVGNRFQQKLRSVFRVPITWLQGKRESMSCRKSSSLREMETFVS

| SMILES | inhibition [1] [%] | inhibition [2] [%] | inhibition [3] [%] | inhibition [4] [%] | inhibition [5] [%] | inhibition [6] [%] | inhibition [7] [%] | inhibition [8] [%] | inhibition [9] [%] | inhibition [10] [%] | inhibition [11] [%] | inhibition [12] [%] | inhibition [13] [%] | inhibition [14] [%] | inhibition [15] [%] | inhibition [16] [%] | inhibition [17] [%] | inhibition [18] [%] | inhibition [19] [%] | inhibition [20] [%] | further results |
| --- | --- | --- | --- | --- | --- | --- | --- | --- | --- | --- | --- | --- | --- | --- | --- | --- | --- | --- | --- | --- | --- |
| O=c1n(Cc2cncn2-c2cccc(Cl)c2)nc(-c2ccc(Cl)cc2)n1C[C@H](O)C(F)(F)F | -5.8 | 4.9 | -2.64 | 0.33 | 11 | -1.01 | 0.93 | 5.32 | 6 | -3 | -4.56 | 1.74 | -4.02 | -5.22 | 3.23 | -9.34 | 3.23 | -8.47 | 4.95 | -3.79 | inhibition [21]: -1.26%; inhibition [22]: -8.53%; inhibition [23]: -5.87%; inhibition [24]: -2.42%; inhibition [25]: 5.16%; inhibition [26]: 7.29%; inhibition [27]: -7.96%; inhibition [28]: -4.33%; inhibition [29]: 1.4%; inhibition [30]: -5.09%; inhibition [31]: 11.3%; inhibition [32]: -2.28%; inhibition [33]: 0.32% |
| C[C@H](O)c1nc(Cn2nc(-c3ccc(Cl)cc3)n(C[C@H](O)C(F)(F)F)c2=O)nn1-c1cccc(Cl)c1 [PECAVAPTAN] | -4.81 | 3.06 | 2.39 | 10.4 | 71.2 | 4.99 | -4.51 | 4.93 | -10 | 4 | 0.7 | 1.69 | 3.65 | -3.11 | 2.01 | 4.65 | -1.01 | -8.75 | -5.39 | -7.04 | inhibition [21]: 3.24%; inhibition [22]: -9.34%; inhibition [23]: 0.32%; inhibition [24]: -1.96%; inhibition [25]: 5.15%; inhibition [26]: 1.73%; inhibition [27]: -3.8%; inhibition [28]: -6.92%; inhibition [29]: -0.38%; inhibition [30]: -6.13%; inhibition [31]: 11.1%; inhibition [32]: -1.02%; inhibition [33]: -3.01% |
